Reference: patent publication EP0357495A2, “3'Azido-3'-deoxythymidine (AZT) derivatives active against the AIDS virus” (IRE-CELLTARG S.A., priority 1988, dated 1990)

Key:
[1] = tested on: virus MSV Moloney sarcoma virus; assay: in vivo activity in MSV-infected NMRI mice (survival, tumour appearance); parameters: species or system souris NMRI
Description: L'AZT et ses dérivés selon l'invention ont été testés in vivo chez la souris NMRI (souriceaux de 2 jours) infectée par le virus MSV Moloney sarcoma virus). La drogue est adminitrée i.p. pendant 5 jours dans un volume de 25 µl/g de poids corporel. Le virus est inoculé dans la cuisse gauche de l'animal deux heures après la première administration de drogue. Les animaux sont contrôlés tous les jours selon trois critères : survie, apparition de la tumeur et poids (toxicité) pendant 50 jours. Les résultats sont repris au tableau 7 et dans les figures 8 à 11. [formula]
On entend par temps médian de survie le temps où la moitié des souris sont encore vivantes. [formula] Tableau 7

[2] = tested on: virus HIV-1 (souche HTLV-IIIB); assay: anti-HIV activity in HIV-infected MT4 cells (MTT method); format: cell-based
Description: Les produits (AZT, AZT-5′ hémisuccinyl et AZT 5′-leucyl) à différentes concentrations ont été mis en présence de cellules MT4 (4 X 10⁴ cellules par puits de microtray) infectées ou non avec 100 CCID₅₀ de virus HIV-1 (souche HTLV-IIIB). La CCID₅₀ représente la quantité de virus à rajouter pour obtenir une infection de 50 % des cellules (dose infectieuse de cellules en culture 50).
Après cinq jours d'incubation à 37°C, le nombre de cellules vivantes a été déterminé par la méthode au MTT, basée sur la réduction par les cellules vivantes du 3′-(4, 5-diméthylthiazol-2-yl)-2,5-diphényltétrazoliumbromide, jaune, en formazan, bleu. L'activité antivirale et la cytotoxicité sont exprimées sous forme de ED₅₀ et de CD₅₀. La CD₅₀ représente la dose qui tue 50 % des cellules non infectées et la ED₅₀ représente la dose qui protège 50 % des cellules de l'infection virale.
La même expérience que celle décrite ci-avant (exemple 9.1)) a été réalisée, mais en présence de thymidine 250 µM et de 2′déoxycytidine 500 µM. En effet l'AZT entre en compétition avec la thymidine au niveau des enzymes de phosphorylation qui vont le transformer en AZT triphosphate (AZT TP) qui est la forme active du produit. Un excès de thymidine réduit donc très fortement l'activité de l'AZT, ce qui se traduit par une ED₅₀ plus élevée. Par conséquent, si le dérivé de l'AZT doit son activité à la libération d'AZT qui à son tour est phosphorylé en AZT TP, un excès de thymidine aura également pour effet d'élever la ED₅₀ du dérivé. La thymidine étant cytotoxique à la concentration utilisée, il est nécessaire de rajouter de la 2′déoxycytidine pour empêcher cette toxicité.
Les protocoles expérimentaux sont ceux décrits à l'exemple 9 3.1) et 9 3).

[3] = AZT-5′ hémisuccinyl 6.8 mg/kg/jour i.p. 5 days
[4] = AZT-5′ hémisuccinyl 34 mg/kg/jour i.p. 5 days
[5] = AZT-5′ hémisuccinyl 170 mg/kg/jour i.p. 5 days
[6] = tableau 4, MT-4, with thymidine (250µM) + 2′déoxy-cytidine (500 µM)
[7] = tableau 4, MT-4, without thymidine / 2′déoxycytidine

## Cc1cn([C@H]2C[C@H](N=[N+]=[N-])[C@@H](COC(=O)CCC(=O)O)O2)c(=O)[nH]c1=O [AZT 5′hémisuccinyl, 5′-hémisuccinyl-3′-azido-3′-déoxythymidine]
[1]; [3]
  % ILS: 20.2%
  % ITL: 52.4%
  Temps moyen d'apparition de la tumeur: 7.3 jours
  Temps moyen de survie: 11.5 jours
  Temps médian d'apparition de la tumeur: 6.8 jours
  Temps médian de survie: 11.0 jours
[1]; [4]
  % ILS: >446%
  % ITL: 145%
  Temps moyen d'apparition de la tumeur: >25.5 jours
  Temps moyen de survie: >41 jours
  Temps médian d'apparition de la tumeur: 11 jours
  Temps médian de survie: >50 jours
[1]; [5]
  % ILS: 42.1%
  % ITL: 257%
  Temps moyen d'apparition de la tumeur: >23 jours
  Temps moyen de survie: >22.7 jours
  Temps médian d'apparition de la tumeur: 16 jours
  Temps médian de survie: 13 jours
[2]; comparison with AZT
  activité (compared with AZT, in words): comparable à celle de l'AZT
[2]; de l'ordre de
  indice de sélectivité: ~28 000
[2]; tableau 2, MT4 cells infected with 100 CCID₅₀ HIV-1, 5 days at 37°C, dose that protects 50 % of cells
  ED₅₀: .0069 µM
[2]; tableau 2, indice de sélectivité = CD₅₀ sur ED₅₀, MT4 cells
  SI: 28543
[2]; tableau 2, ratio within the same experiment, MT4 cells
  SI dérivé/SI AZT: 4.7
[2]; [6]
  ED₅₀: 6,8399 µM
  SI: 53
[2]; [7]
  ED₅₀: 0,0523 µM
  SI: 5633
